Values joined by “and” are separate entries in the source; they are usually repeats but may differ in a detail not shown here. Identical values can stand only once. Results filed as inconclusive are left out.

This test deals with Nude mice, LX-1 lung xenograft intrarenal, tumor weight T/C. As to the kind of experiment: NCI In Vivo Anticancer Drug Screen. Data for tumor model Human Lung LX-1 Xenograft (intrarenal inoculation) in NU/NU BALB/C (nude) mice. Conditions: endpoint: mean tumor weight change, higher = larger tumour. The procedure: The antitumor activity of compounds was measured in mice bearing transplantable tumors. Survival or tumor size were measured and the results are expressed as the measurement made in the treated group (T) divided by the measurement made in the vehicle treated control group (C). The tumor model used in this assay is Human Lung LX-1 Xenograft (intrarenal inoculation) in NU/NU BALB/C (nude) mice

The mark [1] stands for this setting: dose: 400.0 mg/kg/injection, schedule: Q04DX003 (sc), vehicle: saline.
The mark [2] stands for this setting: dose: 300.0 mg/kg/injection, schedule: Q04DX003 (sc), vehicle: saline with Tween-80.
[3] abbreviates: dose: 1200.0 mg/kg/injection, schedule: Q04DX003 (sc), vehicle: saline with Tween-80.
The mark [4] stands for this setting: dose: 50.0 mg/kg/injection, schedule: Q01DX010 (sc), vehicle: saline.
Where [5] appears, read: dose: 100.0 mg/kg/injection, schedule: Q01DX010 (sc), vehicle: saline.

Turning to `CC(=O)C(O)N1C(=O)C=CC1=O` (stereo not drawn), the T/C reads like this: (dose: 2.5 mg/kg/injection, schedule: Q01DX010 (sc), vehicle: saline) 73 % of control; (dose: 5.0 mg/kg/injection, schedule: Q01DX010 (sc), vehicle: saline) 92 % of control; (dose: 10.0 mg/kg/injection, schedule: Q01DX010 (sc), vehicle: saline) 101 % of control.

As to `CCC(C(=O)O)C(=O)O.[NH-]CC1CCCC[N-]1.[Pt+2]`, the T/C was 114 % of control (dose: 100.0 mg/kg/injection, schedule: Q04DX003 (sc), vehicle: saline); 90 % of control (dose: 200.0 mg/kg/injection, schedule: Q04DX003 (sc), vehicle: saline); 60 % of control under setting [1].

For the compound `O=C(CN1CCOCC1)Nc1nc(-c2ccc(Cl)cc2)cs1`, the T/C (dose: 100.0 mg/kg/injection, schedule: Q04DX003 (ip), vehicle: saline with Tween-80) is 118 % of control; the T/C (dose: 200.0 mg/kg/injection, schedule: Q04DX003 (ip), vehicle: saline with Tween-80) was 87 % of control; the T/C (dose: 400.0 mg/kg/injection, schedule: Q04DX003 (ip), vehicle: saline with Tween-80) is 106 % of control; the T/C (dose: 800.0 mg/kg/injection, schedule: Q04DX003 (ip), vehicle: saline with Tween-80) is 89 % of control.

Consider `Nc1ncn(C2CC(O)C(CO)O2)c(=O)n1` (stereo not drawn), for which, under “dose: 0.75 mg/kg/injection, schedule: Q01DX010 (sc), vehicle: saline”, the T/C was 85 % of control.

Turning to `CC(=O)OCC1(C)NC(=O)c2ccccc2O1` (stereo not drawn), the T/C runs as follows: under setting [2], 86 % of control; under setting [3], 91 % of control.

Consider `CC[C@](C)(O)C(=O)O[C@H]1C(=O)O[C@@H]2C[C@H]3C(C)=CC(=O)[C@@H](O)[C@]3(C)[C@H]3[C@@]4(O)OC[C@]32[C@@H]1[C@@H](C)[C@H]4O`, for which the T/C (dose: 0.5 mg/kg/injection, schedule: Q01DX010 (sc), vehicle: Klucel (hydroxypropylcellulose) (HPC)) was 38 % of control and the T/C (dose: 1.0 mg/kg/injection, schedule: Q01DX010 (sc), vehicle: Klucel (hydroxypropylcellulose) (HPC)) was 17 % of control.

In the case of `CNNCc1ccc(C(=O)NC(C)C)cc1`, the T/C is -66 % of control (dose: 50.0 mg/kg/injection, schedule: Q01DX010 (ip), vehicle: saline); 2 % of control and 11 % of control under setting [4]; -100 % of control (dose: 100.0 mg/kg/injection, schedule: Q01DX010 (ip), vehicle: saline); 8 % of control under setting [5]; 5 % of control (dose: 166.66 mg/kg/injection, schedule: Q04DX003 (sc), vehicle: saline); -71 % of control (dose: 200.0 mg/kg/injection, schedule: Q01DX010 (sc), vehicle: saline). In addition, the T/C was -38 % of control (dose: 333.33 mg/kg/injection, schedule: Q04DX003 (sc), vehicle: saline); -65 % of control (dose: 400.0 mg/kg/injection, schedule: Q01DX010 (sc), vehicle: saline); -14 % of control (dose: 666.65 mg/kg/injection, schedule: Q04DX003 (sc), vehicle: saline).

For `CCCNC1=C(C)C(=O)C2=C(C1=O)[C@H](COC(N)=O)[C@]1(OC)[C@@H]3N[C@@H]3CN21`, the T/C is, setting by setting: (dose: 12.0 mg/kg/injection, schedule: Q04DX003 (sc), vehicle: saline + alcohol) 52 % of control; (dose: 24.0 mg/kg/injection, schedule: Q04DX003 (sc), vehicle: saline + alcohol) 8 % of control.

For the compound `NNC(=S)N/N=C/c1ccccn1`, the T/C (dose: 15.0 mg/kg/injection, schedule: Q04DX003 (sc), vehicle: saline with Tween-80) is 78 % of control; the T/C (dose: 30.0 mg/kg/injection, schedule: Q04DX003 (sc), vehicle: saline with Tween-80) is 95 % of control; the T/C (dose: 60.0 mg/kg/injection, schedule: Q04DX003 (sc), vehicle: saline with Tween-80) was 94 % of control.

Regarding `CCCC(=O)Oc1ccc(/C=N/NC(N)=S)nc1`, the T/C runs as follows: (dose: 100.0 mg/kg/injection, schedule: Q01DX010 (sc), vehicle: saline with Tween-80) 66 % of control; (dose: 200.0 mg/kg/injection, schedule: Q01DX010 (sc), vehicle: saline with Tween-80) 42 % of control; (dose: 400.0 mg/kg/injection, schedule: Q01DX010 (sc), vehicle: saline with Tween-80) 19 % of control.

Consider `CC(=O)N(C)O`, for which the T/C (dose: 150.0 mg/kg/injection, schedule: Q04DX003 (sc), vehicle: saline with Tween-80) is 92 % of control.

`CCCCCc1cc(O)c2c(c1)OC(C)(C)[C@@H]1CCC(C)=C[C@@H]21`: the T/C was 94 % of control (dose: 150.0 mg/kg/injection, schedule: Q04DX003 (sc), vehicle: other); 91 % of control (dose: 300.0 mg/kg/injection, schedule: Q04DX003 (sc), vehicle: other); 76 % of control (dose: 600.0 mg/kg/injection, schedule: Q04DX003 (sc), vehicle: other); 90 % of control (dose: 1200.0 mg/kg/injection, schedule: Q04DX003 (sc), vehicle: other).

Consider `N=c1ccn2c(n1)OC1C(O)C(CO)OC12` (stereo not drawn), for which the T/C is 67 % of control under setting [1]; 48 % of control (dose: 800.0 mg/kg/injection, schedule: Q04DX003 (sc), vehicle: saline); 16 % of control (dose: 1600.0 mg/kg/injection, schedule: Q04DX003 (sc), vehicle: saline); 8 % of control (dose: 3200.0 mg/kg/injection, schedule: Q04DX003 (sc), vehicle: saline).

`O=P1(N(CCCl)CCCl)NCCCO1` (stereo not drawn): the T/C (dose: 25.0 mg/kg/injection, schedule: Q04DX003 (ip), vehicle: saline) was 101 % of control; the T/C (dose: 50.0 mg/kg/injection, schedule: Q04DX003 (ip), vehicle: saline) was 92 % of control; the T/C (dose: 100.0 mg/kg/injection, schedule: Q04DX003 (ip), vehicle: saline) is 77 % of control; the T/C (dose: 200.0 mg/kg/injection, schedule: Q04DX003 (ip), vehicle: saline) was 50 % of control.

For `CCOC(=O)C(N)CSC(=O)NC` (stereo not drawn), the T/C by setting is: (dose: 150.0 mg/kg/injection, schedule: Q04DX003 (ip), vehicle: saline) 82 % of control; (dose: 300.0 mg/kg/injection, schedule: Q04DX003 (ip), vehicle: saline) 52 % of control; (dose: 600.0 mg/kg/injection, schedule: Q04DX003 (ip), vehicle: saline) 102 % of control.

Take `BrCCC1(CCBr)CCCCC1`: the T/C (dose: 300.0 mg/kg/injection, schedule: Q04DX003 (sc), vehicle: water) was 104 % of control; the T/C (dose: 600.0 mg/kg/injection, schedule: Q04DX003 (sc), vehicle: water) was 89 % of control; the T/C (dose: 1200.0 mg/kg/injection, schedule: Q04DX003 (sc), vehicle: water) is 85 % of control.

`Nc1nc(N)c(N=O)c(Nc2ccc(Br)cc2)n1`: the T/C under setting [2] is 124 % of control; the T/C (dose: 600.0 mg/kg/injection, schedule: Q04DX003 (sc), vehicle: saline with Tween-80) is 95 % of control; the T/C under setting [3] was 229 % of control; the T/C (dose: 2400.0 mg/kg/injection, schedule: Q04DX003 (sc), vehicle: saline with Tween-80) is 93 % of control.

Take `O=CC(S)CO` (stereo not drawn): the T/C is 94 % of control (dose: 100.0 mg/kg/injection, schedule: Q04DX003 (sc), vehicle: suspension in saline); 94 % of control (dose: 200.0 mg/kg/injection, schedule: Q04DX003 (sc), vehicle: suspension in saline); 84 % of control (dose: 400.0 mg/kg/injection, schedule: Q04DX003 (sc), vehicle: suspension in saline).

For the compound `CNc1nc(NC)nc(NC)n1`, the T/C (dose: 25.0 mg/kg/injection, schedule: Q01DX010 (sc), vehicle: Klucel (hydroxypropylcellulose) (HPC)) is 85 % of control and the T/C (dose: 100.0 mg/kg/injection, schedule: Q01DX010 (sc), vehicle: Klucel (hydroxypropylcellulose) (HPC)) is 107 % of control.

Turning to `COC1N(C2CC(O)C(CO)O2)C(=O)NC(=O)C1(F)Br` (stereo not drawn), the T/C (dose: 12.5 mg/kg/injection, schedule: Q01DX010 (sc), vehicle: saline) is 54 % of control; the T/C under setting [4] is 12 % of control and 24 % of control; the T/C under setting [5] was 12 % of control and 13 % of control.

In the case of `COc1ccc(C(=O)/C(Br)=C/C(=O)O)cc1`, the T/C by setting is: (dose: 25.0 mg/kg/injection, schedule: Q01DX010 (sc), vehicle: saline) 194 % of control; under setting [4], 158 % of control.

On to `CCN(CC)CCNc1ccc(C)c2sc3ccccc3c(=O)c12`, for which, under setting [4], the T/C is 211 % of control.

On to `Cc1cc(NCCCCCCCNc2cc(C)nc3cc(N)ccc23)c2ccc(N)cc2n1`, for which the T/C by setting is: (dose: 12.5 mg/kg/injection, schedule: Q01DX010 (sc), vehicle: saline with Tween-80) 48 % of control; (dose: 25.0 mg/kg/injection, schedule: Q01DX010 (sc), vehicle: saline with Tween-80) 11 % of control.

These data come from PubChem BioAssay AID266 (DTP/NCI, 2004).
